The values below are quoted from earlier work in patent US8911765B2, “Biodegradable, polymer coverings for breast implants” (Tyrx, Inc., priority 2007, dated 2014).

For this data set the following is noted: rabbit, in vivo.

With `O=S(=O)([O-])CCS.[Na+]` [Mesna, sodium 2-mercaptoethane sulfonate], the “capsule formation around implants” value is recorded as “reduce capsule formation”.
